In patent publication US6239284A, “Aromatic tetracyclic compounds of the retinoid type method for preparing and use” (priority 1997, dated 2001):
Entries after “also recorded” stand apart in the source; their conditions may differ.

Legend:
RARβ = assay: Transactivation of chimerical receptor RARβ-ERcassette, transient transfection of HeLa cells; format: cell-based; details: -6 log M (1 μM); 100% = TTNPB 10^-8 M
From the text: (§1) The HeLa cells are co-transfected by a plasmid which codes for a retinoic receptor in which the C domain of bonding to the DNA is substituted by that of the receptor to RE estrogens, and a plasmid which places the expression of the luciferase under the control of an ERE (Element of Response to Estrogens). The expressed chimerical receptors are designated as RARα-ERcassette, RARβ-ERcassette, RARγ-ERcassette and RXRα-ERcassette. The A, B, D, E and F regions of the natural receptor are preserved as well as the transcriptional co-operation between the activation domains AF-1 and AF-2. These transitory transfection experiments follow the method of co-precipitation to calcium phosphate. The HeLa cells are co-transfected by […] of plasmid coding for the chimerical receptor, […] of reporter plasmid and […] of expression vector CMV-β-galactosidase used as an internal control of transfection. 24 hours after the transfection, the cells are incubated for 16 hours with the different effectors.
(§2) In this type of chimerical receptor, the C domain of bonding to the DNA of RAR is substituted by that of the receptor to the RE estrogens. The protein obtained is close to the natural RAR receptor and preserves the transcriptional properties of the AF-1 and AF-2 domains. It modulates the transcription by means of an ERE. This RAR-ERcassette model allows one to observe a transcriptional response to a more physiological ligand.
(§3) The study of the selectivity of the compounds was carried out with the RAR-ERcassette chimerical receptors model.
(§4) On one and the same line in the Table, the cis (Z) compound represents the isomeric structure of the trans (E) compound.

RAR = assay: RAR-ERcassette model, specificity profile (transient transfection of HeLa cells); format: cell-based
From the text: as §1, §2, §3

RARγ = assay: Transactivation of chimerical receptor RARγ-ERcassette, transient transfection of HeLa cells; format: cell-based; details: -6 log M (1 μM); 100% = TTNPB 10^-8 M
From the text: as §1, §2, §3, §4

RARα = assay: Transactivation of chimerical receptor RARα-ERcassette, transient transfection of HeLa cells; format: cell-based; details: for RAR-ERcassette RARα transactivation (%): 100% = TTNPB 10^-8 M
From the text: as §1, §2, §3, §4

RARE [1] = assay: HRLN transactivation (stably transfected HeLa, RARE3-tk-Luc, endogenic receptors); format: cell-based
From the text: (§5) The cellular lineages HRLN and HRL+N allow one to study the activation of an RARE by endogenic receptors using ligands at physiological concentrations. These lineages derive from HeLa cells transfected in a stable fashion by a reporter gene which places the expression of the gene of the luciferase under the control of a nuclear response element RARE (RARE3 -tk-Luc). The HeLa cells express all the known receptors of the retinoic acid (RARα,β,γ and RXRα,β,γ) with a predominance of RARα and RXRα. The response element RARE used for the HRLN cells corresponds to the sequence of the natural gene of the RARβ receptor (GGTTCAnnnnnAGTTCA). The HRL+N cells comprise the sequence GAGTGAnnnnnCGGTGA.

ERE = assay: Anti-estrogenic effect, MELN cellular lineage (MCF-7 with ERE-βGlob-Luc) activated by estradiol; format: cell-based, human; details: for inhibition at 1 µM: -6 log M (10^-6 M), 10^-9 M estradiol
Description: MCF-7 cells express RARα,γ and RXRα. The transfection of MCF-7 cells by an estrogen-dependent gene (ERE-βGlob-Luc) has permitted the establishment of the MELN cellular lineage, used to determine the anti-oestrogenic activity of the retinoids. These cells contain the gene of the luciferase under the transcriptional control of the promoter of the βGlobine and of the response element ERE isolated from the gene of chicken vitelogenine A2. The experiments are carried out with MELN cells activated by 10^-9 M estradiol. The level of base activity of the MELN cells is obtained with the anti-estrogen 1 μM 4-OH-tamoxifen (hydroxytamoxifen).
The effect of the products tested on the cells activated by 10^-9 M estradiol is expressed as a percentage, the level of base activity being deducted.

AP-1 = assay: Anti-AP-1 effect, MTLN cellular lineage (MCF-7 with (TRE)3-tk-Luc) activated by TPA; format: cell-based, human
Description: The anti-factor AP-1 transrepressor effect of retinoids is determined using the MTLN lineage, coming from MCF-7 cells transfected in a stable fashion by a vector p(TRE)3 -tk-Luc which places the expression of the gene of luciferase under the control of […]. TPA activates the AP-1 complex formed from proteins of the family of nuclear proto-oncogenes (c-Jun and c-Fos). […] The experiments ware made with the MTLN cells activated by 10^-7 M TPA.
The effect of the compounds on the MTLN cells activated by 10^-7 M TPA is expressed as a percentage. […] The inhibitive properties of the products are calculated after deduction of the base activity of the cells. The percentages reported correspond to a range of inhibitions determined from several experiments.

T-47D cells = assay: Anti-proliferation effect, estrogen-induced growth of T-47D cells; format: cell-based, human; details: Homo sapiens, T47D, 168 h, read-out: T-47D IC50 (growth inhibition by 50%)
Description: So as to test the anti-proliferation effect of the retinoids, growth experiments under oestrogenic conditions were carried out on cells MCF-7 and T-47D. These are the human estrogen-dependent mammary cancer cells which express the receptor to RE estrogens. The effect of the molecules is evaluated after 7 days of culture in oestrogenic conditions (estradiol 10^-9 M) by dosing the cellular DNA. The cells are distributed in 24 well plates at a density of 2×10^4 cells per well. The tests with the different retinoids are carried out in triplicate and the culture medium is changed after 4 days of growth.
The effect of the retinoids on the growth of MCF-7 and T-47D cells is evaluated after 7 days of culture in the presence of 10^-9 M estradiol by dosing the cellular DNA.

RARE [2] = assay: HRL+N transactivation (stably transfected HeLa, RARE reporter, endogenic receptors); format: cell-based; details: Homo sapiens, HeLa; Table 12; 1 μM
From the text: as §5
The HRL+N lineage allows one to visualize a co-activation of the RAR and RXR receptors at the level of the RAR-RXR hetero-dimer.

[3] = Homo sapiens, read-out: Anti-oestrogenic effect, Inhibition (%)

Row | SMILES | RAR-ERcassette RARβ transactivation (%) (RARβ) | RAR-ERcassette profile in words (RAR) | RAR-ERcassette RARγ transactivation (%) (RARγ) | RAR-ERcassette RARα transactivation (%) (RARα; -6 log M (1 μM)) | HRLN transactivation in words (RARE [1]) | activation at 1 µM (RARE [1]; Homo sapiens, HeLa) | inhibition at 1 µM (ERE; [3]) | other results
1 | CC1(C)CCC(C)(C)c2cc(/C=C3\CCc4cc(-c5nnn[nH]5)ccc43)ccc21 [CB99811, (E) 5-[1-[2-(5,6,7,8-tetrahydro-5,5,8,8-tetramethyl)naphthalenylmethylene]-2,3,-dihydro-1H-indenyl]-1H-tetrazole] | 11% | weakly active | 14% | 3% |  |  |  | 
2 | CC1=C(/C=C/C(C)=C\C=C\C(C)=C\C(=O)O)C(C)(C)CCC1 [9-cis RA, reference compound] |  | induce an over-expression of luciferase in comparison to the induction brought about by a synthetic compound (TTNPB) |  | 348% | dose-dependent activation |  |  | Emax (RARE [1]; Homo sapiens, HeLa, read-out: HRLN transactivation E max %): 196%; inhibition at 0.1 µM (ERE; [3]): 35%; Anti-AP-1 effect, Inhibition (%) (AP-1; -8 log M, 10^-7 M TPA, range of several experiments): 30-37%; IC50 (T-47D cells): 25.1 ± 1.4 nM; RAR-ERcassette RARα transactivation (%) (RARα; -7 log M): 187%; RAR-ERcassette RARα transactivation (%) (RARα; -8 log M): 60%; RAR-ERcassette RARα transactivation (%) (RARα; -9 log M): 7%
3 | CC1(C)CCC(C)(C)c2cc(/C=C3/CCc4cc(-c5nnn[nH]5)ccc43)ccc21 [CB94083, (Z) 5-[1-[2-(5,6,7,8-tetrahydro-5,5,8,8-tetramethyl)naphthalenylmethylene]-2,3-dihydro-1H-indenyl]-1H-tetrazole] | 14% | weakly active | 18% | 4% |  |  |  | activation at 1 µM (RARE [2]): 13%
4 | CCCCCCCOc1cc2c(cc1/C(C)=C/c1ccc(C(=O)O)cc1)C(C)(C)CCS2(=O)=O [Ro 41-5253] |  |  |  |  | totally abolishes the response of Am580 and partially abolishes that of TTNPB |  |  | Anti-estrogenic effect (MELN) in words (ERE): raises the inhibitor effect of Am580 and also of TTNPB; Anti-AP-1 effect (MTLN) in words (AP-1): does not allow the inhibition induced by TTNPB to be totally lifted
5 | Cc1cc2c(cc1/C=C1\CCc3cc(-c4nnn[nH]4)ccc31)C(C)(C)CCC2(C)C [CB23804, (E) 5-[1-[2-(5,6,7,8-tetrahydro-3,5,5,8,8-pentamethyl)naphthalenylmethylene]-2,3-dihydro-1H-indenyl]-1H-tetrazole] | 28% | weakly active | 19% | 4% | slightly active | 15% | 0% | 
6 | CC1(C)CCC(C)(C)c2cc(/C=C3\CCc4cc(C(=O)O)ccc43)ccc21 [CB78937, (E) 1-[2-(5,6,7,8-tetrahydro-5,5,8,8-tetramethyl)naphthalenylmethylene]-2,3-dihydro-1H-indene-5-carboxylic acid] | 65% | RARβ,γ specificity; also recorded: RARβ,γ selectivity | 93% | 18% | partial transactivation | 25% | 4% | RARα transactivation (RAR-ERcassette) in words (RARα): inactive on RARα
7 | CC1(C)CCC(C)(C)c2cc(/C=C3\CCCc4cc(C(=O)O)ccc43)ccc21 [CB66049, (E) 1-[2-(5,6,7,8-tetrahydro-5,5,8,8-tetramethyl)naphthalenylmethylene]-1,2,3,4-tetrahydronaphthalene-6-carboxylic acid] | 0% | The same result is observed | 8% | 0% | inactive | 0% |  | 
8 | CC1(C)CCC(C)(C)c2cc(/C=C3/CCc4cc(C(=O)O)ccc43)ccc21 [CB27871] | 36% |  | 67% | 29% | partial transactivation | 27% |  | 
9 | CC1(C)CCC(C)(C)c2cc(/C=C3/CCCc4cc(C(=O)O)ccc43)ccc21 [CB80830, (Z) 1-[2-(5,6,7,8-tetrahydro-5,5,8,8-tetramethyl)naphthalenylmethylene]-1,2,3,4-tetrahydronaphthalene-6-carboxylic acid] | 0% | The same result is observed | 1% | 2% | inactive | 4% | 2% | 
10 | CC1Cc2cc(C(=O)O)ccc2/C1=C/c1ccc2c(c1)C(C)(C)CCC2(C)C (stereo not shown) [CB52809, (E) 1-[2-(5,6,7,8-tetrahydro-5,5,8,8-tetramethyl)naphthalenylmethylene]-2,3-dihydro-2-methyl-1H-indene-5-carboxylic acid] | 0% |  | 13% | 5% |  | 0% | 0% | 
11 | Cc1cc2c(cc1/C=C1\CCc3cc(C(=O)O)ccc31)C(C)(C)CCC2(C)C [CB40341, (E) 1-[2-(5,6,7,8-tetrahydro-3,5,5,8,8-pentamethyl)naphthalenylmethylene]-2,3-dihydro-1H-indene-5-carboxylic acid] | 75% | RARβ,γ specificity; also recorded: RARβ,γ selectivity | 79% | 14% | partial transactivation | 30% |  | RARα transactivation (RAR-ERcassette) in words (RARα): inactive on RARα
